Measured values reported in patent US20170327598A1, “SINGLE DOMAIN ANTIBODIES DIRECTED AGAINST INTRACELLULAR ANTIGENS” (SINGH MOLECULAR MEDICINE, LLC, priority 2014, published 2017).
“And” between values parts separate entries of the source, which are not always exact repeats. Equal values may be shown once.

Columns and labels:
endogenous STAT3 = biological target: T1, endogenous STAT3 (Homo sapiens, UniProt P40763); experiment: Immunoprecipitation of endogenous STAT3 from MDA-MB-231 lysate, Western blot; type: binding; details: FIG. 3
T1 construct: endogenous STAT3 immunoprecipitated with all sdAbs tested at varying amounts; endogenous in cells
T1 sequence (P40763 whole entry): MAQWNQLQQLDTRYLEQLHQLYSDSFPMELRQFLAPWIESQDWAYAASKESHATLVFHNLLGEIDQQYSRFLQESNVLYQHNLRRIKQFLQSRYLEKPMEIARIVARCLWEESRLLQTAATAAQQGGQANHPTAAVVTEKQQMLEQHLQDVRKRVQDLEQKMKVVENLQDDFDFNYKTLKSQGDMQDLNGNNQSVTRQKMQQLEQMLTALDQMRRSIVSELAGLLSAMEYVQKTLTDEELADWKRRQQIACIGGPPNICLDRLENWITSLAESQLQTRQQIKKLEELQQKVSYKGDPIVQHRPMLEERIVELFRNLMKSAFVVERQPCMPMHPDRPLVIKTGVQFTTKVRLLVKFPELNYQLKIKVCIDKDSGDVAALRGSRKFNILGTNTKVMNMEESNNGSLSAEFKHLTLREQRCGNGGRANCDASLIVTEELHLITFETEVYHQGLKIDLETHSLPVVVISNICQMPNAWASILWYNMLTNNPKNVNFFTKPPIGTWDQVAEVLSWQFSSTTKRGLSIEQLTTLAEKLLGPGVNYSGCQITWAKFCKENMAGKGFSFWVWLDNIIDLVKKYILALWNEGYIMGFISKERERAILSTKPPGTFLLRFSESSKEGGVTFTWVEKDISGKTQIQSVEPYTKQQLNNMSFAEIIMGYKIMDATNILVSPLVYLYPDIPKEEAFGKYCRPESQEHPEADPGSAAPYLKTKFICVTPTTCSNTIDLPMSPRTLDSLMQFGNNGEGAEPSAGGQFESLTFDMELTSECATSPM
Protocol: The specificity of STAT3 sdAbs was assayed in human breast cancer cells. […] The cells were then disrupted in freshly prepared ice-cold lysis buffer (20 mM HEPES, pH 7.9, 400 mM NaCl, 0.1% NP-40, 10% glycerol, 1 mM sodium vanadate, 1 mM sodium fluoride, 1 mM dithiothreitol, 1 mM phenylmethylsulfonyl fluoride, 10 μg/mL aprotinin, 10 μg/mL leupeptin) for 45 minutes on ice. Lysates were then centrifuged, the supernatant collected, and protein concentration was determined using a modified Lowry method (Bio Rad, Hercules, Calif.). Total protein (1 mg) was incubated with 1.5 mg of Dynabeads (Invitrogen) with sdAbs against STAT3, a positive control (STAT3, cat#SC-482, Santa Cruz Biotechnology, Dallas, Tex.), or negative control (STAT-1, cat#9172, Cell Signaling, Danvers, Mass.) for 1 hour at 4° C. Beads were then washed. Following the final wash, 60 μl of lysis buffer was added, and the resulting supernatant was subject to Western blot analysis. Briefly, samples were separated on 10% polyacrylamide gels and transferred to a nitrocellulose membrane. The membranes were blocked, then incubated with appropriate primary and secondary antibodies. Anti-STAT3 antibody, used as a positive control, was from Cell Signaling (Cat#4904, Danvers, Mass.). The chemiluminescence reaction was performed using the ECL system from Santa Cruz Biotechnology (Dallas, Tex.).

PANC-1 cells = experiment: PANC-1 growth inhibition with or without Gemcitabine; details: for Absorbance: 72 hours
PANC-1 xenograft = experiment: PANC-1 xenograft, sdAb alone, Gemcitabine alone or combination, Example 19; details: for BODY WEIGHT (g) Mean / TUMOR VOLUMES (mm^3) Mean / % INHIBITION OF CONTROL (tumor growth): SBT-100 5 mg/kg BID, Gemcitabine 20 mg/kg, or both
[1] = system: STAT3 reporter, induction by interleukin-6; experiment: STAT3 reporter GloResponse SIE-luc2P/HEK293 cell assay, IL-6 induction; type: cell-based; details: for effect on IL-6 induction of STAT3 reporter: 24 hours and 48 hours treatment prior to IL-6;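 as to all read-outs here: IL-6 added at 40 ng/mL (EC80) for roughly one day after pretreatment, luciferase luminescence read with Bio-Glo reagent, untreated +IL6 wells serve as control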
[2] = system: GloResponse SIE-luc2P/HEK 293 cells; experiment: BCA protein concentration of reporter cells run in parallel; type: cell-based
[3] = biological target: T2, active human TNF-α full length protein (Homo sapiens, UniProt P01375); experiment: TNF ELISA, binding of anti-TNF-α sdAbs to coated TNF-α protein; details: for detection in coated versus non-coated wells: 1 μg/mL sdAb, 0.5 μg/mL coating antigen; for binding to the TNF-α protein, detection: Experiment 1, 1 μg/mL sdAb; for OD450 Values: Non-Coated wells, sdAb 1 μg/mL, non-specific binding
T2 construct: purchased Abcam
T2 sequence (P01375 77-233 limits assumed): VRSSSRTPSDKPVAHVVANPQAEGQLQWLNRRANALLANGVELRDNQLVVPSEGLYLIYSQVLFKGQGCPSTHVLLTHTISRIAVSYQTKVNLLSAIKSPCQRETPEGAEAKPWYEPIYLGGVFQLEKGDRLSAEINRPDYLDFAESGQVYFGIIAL
Protocol: In this Example, the binding of anti-TNF-α sdAbs to active human TNF-α full length protein was assessed using an enzyme linked immunosorbent assay (ELISA) format. Additionally, the feasibility of utilizing a secondary antibody targeted to the his tag portion of the sdAbs was assessed.
Plates were incubated overnight at 2-8° C. After the incubation, plates were washed (3×) and blocked (3% Bovine Serum Albumin (BSA) in Phosphate Buffered Saline (PBS)) for at least one hour at room temperature.
After removal of the blocking buffer and washing (3×), samples were added to the appropriate wells of the ELISA plates and incubated at room temperature with shaking (150 rpm) for at least one hour. The secondary antibody (rabbit anti-llama biotinylated antibody at either a 1:5,000 or 10,000 dilution) was then added to each well and incubated with shaking for at least one hour at room temperature.
After the incubation with secondary antibody, the plates were again washed (3×) and horseradish peroxidase (HRP) at either a 1:25,000 or 1:50,000 dilution was added to each well. Plates were incubated with shaking for at least one hour at room temperature. A final wash (3×) was performed followed by the addition of TMB (Tetramethylbenzidine) substrate. After a 20 to 25 minute incubation at room temperature, stop solution was added to halt the colorimetric reaction. The absorbance at 450 nm was measured on a VersaMax instrument utilizing SoftMax Pro GxP version 5.4 software from Molecular Devices (Sunnyvale, Calif.).
The final experiment performed was to confirm that the results from the ELISA testing were due to binding to the TNF-α protein and not non-specific binding of the sdAb. For this determination, a comparison was made between wells coated with 0.5 μg/mL of coating antigen and non-coated wells. […] This experiment confirms that the detection seen with the previous experiments was due to the specific binding of the VHH to the coating antigen and not due to non-specific binding.

[4] = system: rabbit anti-llama biotinylated antibody or his-probe (H-3) biotin labeled antibody; experiment: ELISA with sdAbs coated, binding of secondary antibodies (Experiments 2 and 3)
Protocol: Two assays (Experiment 2 and 3) were performed to assess the binding of the secondary antibody to the sdAbs. A similar ELISA method was utilized except the sdAbs were directly coated onto the assay plate at a concentration of 1 μg/mL. Plates were incubated overnight at 2-8° C. After the incubation, plates were washed (3×) and blocked (3% BSA in PBS) for at least one hour at room temperature.
After removal of the blocking buffer and washing (3×), the secondary antibodies, either rabbit anti-llama biotinylated antibody or his-probe (H-3) biotin labeled antibody at was then added at a 1:5,000 dilution to each well and incubated with shaking for at least one hour at room temperature. Only the rabbit anti-llama biotinylated antibody was used in Experiment 2. Both antibodies were run in parallel in Experiment 3.
After the incubation with secondary antibody, the plates were again washed (3×) and HRP at a 1:50,000 dilution was added to each well. Plates were incubated with shaking for at least one hour at room temperature. One last wash (3×) was performed followed by the addition of TMB substrate and plates were incubated at room temperature. For the anti-llama biotinylated antibody stop solution was added to halt the colorimetric reaction at 10 minutes. The his-probe (H-3) biotin labeled antibody was allowed to incubate for 20 minutes prior to stopping. The absorbance at 450 nm was measured as before.

[5] = 24 Hour Treatment Prior to IL6 Induction, high conc.: VHH13 55.8 μg/mL, VHH14 84.3 μg/mL, BB1608 4.16 μM, VHH69 50.5 μg/mL
[6] = 24 Hour Treatment Prior to IL6 Induction, low conc.: VHH13, VHH14, VHH69 10 μg/mL, BB1608 2 μM
[7] = 48 Hour Treatment Prior to IL6 Induction, high conc.: VHH13 55.8 μg/mL, VHH14 84.3 μg/mL, BB1608 4.16 μM, VHH69 50.5 μg/mL
[8] = 48 Hour Treatment Prior to IL6 Induction, low conc.: VHH13, VHH14, VHH69 10 μg/mL, BB1608 2 μM
[9] = His-probe (H-3), Experiment 3, stored 1:100 dilution of sdAb
[10] = Rabbit anti-Llama Secondary Antibody, Experiment 2, sdAb coated at 1 μg/mL
[11] = Rabbit anti-Llama Secondary Antibody, Experiment 3, stored 1:100 dilution of sdAb

STAT-1: negative control in immunoprecipitation (STAT-1, cat#9172, Cell Signaling) [reference compound]
immunoprecipitation of endogenous STAT3 (endogenous STAT3): no band

Nc1ccn([C@@H]2O[C@H](CO)[C@@H](O)C2(F)F)c(=O)n1 [Gemcitabine]
Absorbance (PANC-1 cells; Gemcitabine 0.020 μM in DMSO): 1.560 | Absorbance (PANC-1 cells; Gemcitabine 0.039 μM in DMSO): 1.240 | Absorbance (PANC-1 cells; Gemcitabine 0.625 μM in DMSO): 1.050 | Absorbance (PANC-1 cells; Gemcitabine 5 μM in DMSO): 0.631 | Absorbance (PANC-1 cells; Gemcitabine 10 μM in DMSO): 0.543 | IC50 (PANC-1 cells; Homo sapiens, PANC-1, read-out: IC50 concentration): 10 µM | Mean Tumour Size (mm^3) Day 1 (PANC-1 xenograft; Day 1 (start of treatment), SBT-100 5 mg/kg IP BID × 14, Gemcitabine 20 mg/kg IP QD × 7, or both): 122.23 ± 23.46 mm^3 | BODY WEIGHT (g) Mean (PANC-1 xenograft; Day 1): 23.77 g | TUMOR VOLUMES (mm^3) Mean (PANC-1 xenograft; Day 1): 122.23 mm^3 | BODY WEIGHT (g) Mean (PANC-1 xenograft; Day 5): 23.47 g | TUMOR VOLUMES (mm^3) Mean (PANC-1 xenograft; Day 5): 165.57 mm^3 | BODY WEIGHT (g) Mean (PANC-1 xenograft; Day 8): 23.37 g | TUMOR VOLUMES (mm^3) Mean (PANC-1 xenograft; Day 8): 183.88 mm^3 | % INHIBITION OF CONTROL (tumor growth) (PANC-1 xenograft; Day 12): 19.51% | BODY WEIGHT (g) Mean (PANC-1 xenograft; Day 12): 23.13 g | TUMOR VOLUMES (mm^3) Mean (PANC-1 xenograft; Day 12): 191.6 mm^3 | % INHIBITION OF CONTROL (tumor growth) (PANC-1 xenograft; Day 15): 23.17% | TUMOR VOLUMES (mm^3) Mean (PANC-1 xenograft; Day 15): 246.48 mm^3 | % INHIBITION OF CONTROL (tumor growth) (PANC-1 xenograft; Day 19): 23.26% | BODY WEIGHT (g) Mean (PANC-1 xenograft; Day 19): 23.97 g | TUMOR VOLUMES (mm^3) Mean (PANC-1 xenograft; Day 19): 312.74 mm^3 | % INHIBITION OF CONTROL (tumor growth) (PANC-1 xenograft; Day 22): 14.93% | BODY WEIGHT (g) Mean (PANC-1 xenograft; Day 22): 24.55 g | TUMOR VOLUMES (mm^3) Mean (PANC-1 xenograft; Day 22): 411.93 mm^3

CC(=O)c1cc2c(o1)C(=O)c1ccccc1C2=O [BB1608, napabucasin, reference compound]
Average RLU [1, 5]: 33 RLU | Average RLU with Media Blank [1, 5]: 8 RLU | Fold-Induction RLU/RLU of-IL6 [1, 5]: 0 | Luminescence (RLU), single wells [1, 5]: 41 RLU and 28 RLU and 31 RLU | Average RLU [1, 6]: 38 RLU | Average RLU with Media Blank [1, 6]: 12 RLU | Fold-Induction RLU/RLU of-IL6 [1, 6]: 0 | Luminescence (RLU), single wells [1, 6]: 41 RLU and 33 RLU and 39 RLU | Average RLU [1, 7]: 29 RLU | Average RLU with Media Blank [1, 7]: −3 RLU | Fold-Induction RLU/RLU of−IL6 [1, 7]: 0 | Luminescence (RLU), single wells [1, 7]: 25 RLU and 31 RLU and 32 RLU | Average RLU [1, 8]: 33 RLU | Average RLU with Media Blank [1, 8]: 0 RLU | Fold-Induction RLU/RLU of−IL6 [1, 8]: 0 | Luminescence (RLU), single wells [1, 8]: 26 RLU and 42 RLU and 31 RLU | effect on IL-6 induction of STAT3 reporter [1]: Inhibition of IL-6 | Protein concentration [2, 5]: 174 | Protein concentration [2, 6]: 425 | Protein concentration [2, 7]: 165 | Protein concentration [2, 8]: 324

B1: anti-TNF-alpha VHH69: second anti-TNF-alpha single domain antibody, SEQ ID NO:46 (protein)
VHH: EVQLVESGGGSVLAGGSLRLSCVASGFTSRYNYMAWFRQAPGKEREGVATIGTASGSADYYGSVKDRFTISQDNAKNTVYLQMNSLKPEDTAMYYCAARTYGTISLTPSDYRYWGQGTLVTVSS
modifications: Camelid
Average RLU [1, 5]: 198596 RLU | Average RLU with Media Blank [1, 5]: 198571 RLU | Fold-Induction RLU/RLU of-IL6 [1, 5]: 434 | Luminescence (RLU), single wells [1, 5]: 203139 RLU and 194320 RLU and 198330 RLU | Average RLU [1, 6]: 169752 RLU | Average RLU with Media Blank [1, 6]: 169726 RLU | Fold-Induction RLU/RLU of-IL6 [1, 6]: 371 | Luminescence (RLU), single wells [1, 6]: 159115 RLU and 184364 RLU and 165776 RLU | Average RLU [1, 7]: 225726 RLU | Average RLU with Media Blank [1, 7]: 225694 RLU | Fold-Induction RLU/RLU of−IL6 [1, 7]: 452 | Luminescence (RLU), single wells [1, 7]: 237816 RLU and 220259 RLU and 219104 RLU | Average RLU [1, 8]: 172988 RLU | Average RLU with Media Blank [1, 8]: 172955 RLU | Fold-Induction RLU/RLU of−IL6 [1, 8]: 347 | Luminescence (RLU), single wells [1, 8]: 191241 RLU and 171796 RLU and 155927 RLU | effect on IL-6 induction of STAT3 reporter [1]: enhancement of the IL-6 induction | Protein concentration [2, 5]: 213 | Protein concentration [2, 6]: 237 | Protein concentration [2, 8]: 222 | detection in coated versus non-coated wells [3]: detected in coated wells but not in non-coated wells | binding to the TNF-α protein, detection [3]: little to no detection | OD450 Values [3]: 0.007 | OD450 Values [4, 9]: 0.153 | OD450 Values [4, 10]: 0.499 | OD450 Values [4, 11]: 0.443

B2: anti-TNF-alpha VHH62: third anti-TNF-alpha single domain antibody, SEQ ID NO:47 (protein)
VHH: QVQLVESGGGPVQAGETLRLSCTASGFTFAEADMGWYRQAPGHECELVSTITTEGITSEASSYYADSVRGRFTISRDNAKNMVYLQMNSLKPEDTAVYYCAPDPYAYSTYSDYCSWAQGTQGTLVTVSS
modifications: Camelid
detection in coated versus non-coated wells [3]: not detected in either coated or non-coated wells | binding to the TNF-α protein, detection [3]: little to no detection | OD values ([3]; Experiment 4, 10-fold serial dilutions starting at 1 μg/mL): < 0.2 OD450 | OD450 Values [3]: −0.001 | OD450 Values [4, 9]: 0.196 | OD450 Values [4, 10]: 1.485 | OD450 Values [4, 11]: 2.341
